Results taken from patent US20060069132A1, “Azolecarboxamide herbicides” (priority 2004, published 2006).

Columns and labels:
[1] = system: lambsquarters; assay: Test B pre-/postemergence herbicide test; type: in vivo, Chenopodium album; settings: for Lambsquarters plant response rating: postemergence, visual rating, scale 0 (no effect) to 100 (complete control)
Procedure, shortened: (§1)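 Herbicidal effect was judged by eye on a 0–100 scale after plants stood 13 to 15 days in the greenhouse following pre- or postemergence treatment with surfactant-containing formulations.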

[2] = system: rice; assay: Test B pre-/postemergence herbicide test; type: in vivo, Oryza sativa; settings: preemergence
Procedure, shortened: as §1

[3] = system: barnyardgrass; assay: Test C flooded paddy test; type: in vivo, Echinochloa crus-galli
Procedure, shortened: (§2)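 Plants were grown to the 1- to 4-leaf stage (2–18 cm) and then treated postemergence, or grown to the 2-leaf stage for the flooded paddy test. They were held in a greenhouse for 12 to 14 days and then scored by eye against controls, where 0 is no effect and 100 is complete control.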

[4] = system: smallflower umbrella sedge; assay: Test C flooded paddy test; type: in vivo, Cyperus difformis
[5] = system: rice; assay: Test C flooded paddy test; type: in vivo, Oryza sativa
Procedure, shortened: as §2

[6] = system: Surinam grass; assay: Test B pre-/postemergence herbicide test; type: in vivo, Urochloa decumbens; settings: for Surinam Grass plant response rating: postemergence, visual rating, scale 0 (no effect) to 100 (complete control)
Procedure, shortened: as §1

[7] = system: cocklebur; assay: Test B pre-/postemergence herbicide test; type: in vivo, Xanthium strumarium; settings: for Cocklebur plant response rating: postemergence, visual rating, scale 0 (no effect) to 100 (complete control)
Procedure, shortened: (§3)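 Evaluation is visual, comparing treated with control plants on a scale where 0 means no effect and 100 means full control. Treatments were preemergence, or postemergence on seedlings 2–18 cm tall, and held 13–15 days in the greenhouse.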

[8] = system: blackgrass; assay: Test B postemergence herbicide test; type: in vivo, Alopecurus myosuroides; settings: postemergence, visual rating, scale 0 (no effect) to 100 (complete control)
Procedure, shortened: (§4)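 Each value is a visual 0–100 response rating taken against controls 13 to 15 days after treatment in the greenhouse. Plants received formulated chemical postemergence at the 1- to 4-leaf stage or, in flooded paddy, at the 2-leaf stage.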

[9] = system: barnyardgrass; assay: Test B flooded paddy test; type: in vivo, Echinochloa crus-galli; settings: 1000 g ai/ha, visual rating, scale 0 to 100 (0 no effect, 100 complete control), 13 to 15 days
Procedure, shortened: as §4

[10] = system: wild oat; assay: Test B postemergence herbicide test; type: in vivo, Avena fatua; settings: postemergence, visual rating, scale 0 (no effect) to 100 (complete control)
Procedure, shortened: (§5)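 Greenhouse test; postemergence application to plants at 1–4 leaves (2–18 cm); paddy species at 2 leaves; evaluated visually vs controls at 13–15 days; scale 0–100 (100 = complete control).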

[11] = system: large crabgrass; assay: Test B pre-/postemergence herbicide test; type: in vivo, Digitaria sanguinalis; settings: for Crabgrass, Large plant response rating: postemergence, visual rating, scale 0 (no effect) to 100 (complete control)
Procedure, shortened: as §1

[12] = system: small flower umbrella sedge; assay: Test B flooded paddy test; type: in vivo, Cyperus difformis; settings: 1000 g ai/ha, visual rating, scale 0 to 100 (0 no effect, 100 complete control), 13 to 15 days
Procedure, shortened: as §4

[13] = system: rice; assay: Test B flooded paddy test; type: in vivo, Oryza sativa; settings: 1000 g ai/ha, visual rating, scale 0 to 100 (0 no effect, 100 complete control), 13 to 15 days
Procedure, shortened: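 Treated at 2-leaf (paddy) or 1–4-leaf, 2–18 cm (postemergence); greenhouse 13–15 d; visual score vs control, 0 none to 100 complete control; dash = not tested.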

[14] = system: morningglory; assay: Test B pre-/postemergence herbicide test; type: in vivo, Ipomoea coccinea; settings: for Morningglory plant response rating: postemergence, visual rating, scale 0 (no effect) to 100 (complete control)
Procedure, shortened: as §3

[15] = system: ducksalad; assay: Test C flooded paddy test; type: in vivo, Heteranthera limosa
[16] = system: barnyardgrass; assay: Test B pre-/postemergence herbicide test; type: in vivo, Echinochloa crus-galli; settings: for Barnyardgrass plant response rating: postemergence, visual rating, scale 0 (no effect) to 100 (complete control)
Procedure, shortened: as §3

[17] = system: ducksalad; assay: Test B flooded paddy test; type: in vivo, Heteranthera limosa; settings: 1000 g ai/ha, visual rating, scale 0 to 100 (0 no effect, 100 complete control), 13 to 15 days
Procedure, shortened: as §4

[18] = system: velvetleaf; assay: Test B pre-/postemergence herbicide test; type: in vivo, Abutilon theophrasti; settings: for Velvetleaf plant response rating: postemergence, visual rating, scale 0 (no effect) to 100 (complete control)
Procedure, shortened: as §1

[19] = system: pigweed; assay: Test B pre-/postemergence herbicide test; type: in vivo, Amaranthus retroflexus; settings: for Pigweed plant response rating: postemergence, visual rating, scale 0 (no effect) to 100 (complete control)
Procedure, shortened: as §1

[20] = system: giant foxtail; assay: Test B pre-/postemergence herbicide test; type: in vivo, Setaria faberi; settings: for Foxtail, Giant plant response rating: postemergence, visual rating, scale 0 (no effect) to 100 (complete control)
Procedure, shortened: as §1

[21] = system: wheat; assay: Test B postemergence herbicide test; type: in vivo, Triticum aestivum; design: key to Wheat plant response rating: 0 = no effect, 100 = complete control; settings: postemergence, visual rating, scale 0 (no effect) to 100 (complete control)
Procedure, shortened: as §5

[22] = system: corn; assay: Test B pre-/postemergence herbicide test; type: in vivo, Zea mays; settings: for Corn plant response rating: postemergence, visual rating, scale 0 (no effect) to 100 (complete control)
Procedure, shortened: as §1

[23] = 125 g ai/ha, 0 = no effect, 100 = complete control, preemergence
[24] = 500 g ai/ha, visual rating 0-100, 0 no effect, 100 complete control, preemergence
[25] = 62 g ai/ha, scale 0 to 100 (0 no effect, 100 complete control)
[26] = 250 g ai/ha, scale of 0 to 100, 0 is no effect, 100 is complete control
[27] = 500 g ai/ha, visual rating after 12 to 14 days, scale 0 to 100 (0 no effect, 100 complete control)
[28] = 125 g ai/ha, scale 0 to 100 (0 no effect, 100 complete control)

## CCNC(=O)c1cccc(NC(=O)c2cn(C(C)(C)C)nc2CC)c1 [Compound 181]
[1]; [23]
  Lambsquarters plant response rating (0 to 100 scale): 50
[1]; [24]
  Plant response rating, Lambsquarters: 100
[1]; 125 g ai/ha
  Lambsquarters plant response rating: 70
[1]; 500 g ai/ha
  Lambsquarters plant response rating: 90
[2]; 125 g ai/ha, 0 = no effect, 100 = complete control
  Rice plant response rating (0 to 100 scale): 40
[2]; 500 g ai/ha, visual rating 0-100, 0 no effect, 100 complete control
  Plant response rating, Rice: 70
[3]; [25]
  Barnyardgrass plant response rating: 0
[3]; 125 g ai/ha, scale of 0 to 100, 0 is no effect, 100 is complete control
  Barnyardgrass plant response rating: 0
[3]; [26]
  Barnyardgrass plant response rating: 0
[3]; [27]
  Plant response rating, Barnyardgrass: 0
[4]; [25]
  Sedge, Umbrella plant response rating: 10
[4]; [28]
  Sedge, Umbrella plant response rating: 20
[4]; [26]
  Sedge, Umbrella plant response rating: 80
[4]; [27]
  Plant response rating, Sedge, Umbrella: 85
[5]; [25]
  Rice plant response rating: 0
[5]; [28]
  Rice plant response rating: 0
[5]; [26]
  Rice plant response rating: 0
[5]; [27]
  Plant response rating, Rice: 0
[6]; [23]
  Surinam Grass plant response rating (0 to 100 scale): 30
[6]; [24]
  Plant response rating, Surinam Grass: 70
[6]; 125 g ai/ha
  Surinam Grass plant response rating: 20
[6]; 500 g ai/ha
  Surinam Grass plant response rating: 20
[7]; [23]
  Cocklebur plant response rating (0 to 100 scale): 10
[7]; [24]
  Plant response rating, Cocklebur: 20
[7]; 125 g ai/ha
  Cocklebur plant response rating: 20
[7]; 500 g ai/ha
  Cocklebur plant response rating: 70
[8]; 125 g ai/ha
  Blackgrass plant response rating: 0
[8]; 500 g ai/ha
  Blackgrass plant response rating: 10
[9]
  Barnyardgrass plant response rating: 80
[10]; 125 g ai/ha
  Oat, Wild plant response rating: 20
[10]; 500 g ai/ha
  Oat, Wild plant response rating: 30
[11]; [23]
  Crabgrass, Large plant response rating (0 to 100 scale): 50
[11]; [24]
  Plant response rating, Crabgrass, Large: 100
[11]; 125 g ai/ha
  Crabgrass, Large plant response rating: 10
[11]; 500 g ai/ha
  Crabgrass, Large plant response rating: 20
[12]
  Sedge, Umbrella plant response rating: 80
[13]
  Rice plant response rating: 80
[14]; [23]
  Morningglory plant response rating (0 to 100 scale): 0
[14]; [24]
  Plant response rating, Morningglory: 20
[14]; 125 g ai/ha
  Morningglory plant response rating: 20
[14]; 500 g ai/ha
  Morningglory plant response rating: 20
[15]; [25]
  Ducksalad plant response rating: 0
[15]; [28]
  Ducksalad plant response rating: 0
[15]; [26]
  Ducksalad plant response rating: 0
[15]; [27]
  Plant response rating, Ducksalad: 80
[16]; [23]
  Barnyardgrass plant response rating (0 to 100 scale): 30
[16]; [24]
  Plant response rating, Barnyardgrass: 90
[16]; 125 g ai/ha
  Barnyardgrass plant response rating: 0
[16]; 500 g ai/ha
  Barnyardgrass plant response rating: 10
[17]
  Ducksalad plant response rating: 90
[18]; [23]
  Velvetleaf plant response rating (0 to 100 scale): 0
[18]; [24]
  Plant response rating, Velvetleaf: 10
[18]; 125 g ai/ha
  Velvetleaf plant response rating: 10
[18]; 500 g ai/ha
  Velvetleaf plant response rating: 20
[19]; [23]
  Pigweed plant response rating (0 to 100 scale): 30
[19]; [24]
  Plant response rating, Pigweed: 100
[19]; 125 g ai/ha
  Pigweed plant response rating: 40
[19]; 500 g ai/ha
  Pigweed plant response rating: 90
[20]; [23]
  Foxtail, Giant plant response rating (0 to 100 scale): 20
[20]; [24]
  Plant response rating, Foxtail, Giant: 100
[20]; 125 g ai/ha
  Foxtail, Giant plant response rating: 20
[20]; 500 g ai/ha
  Foxtail, Giant plant response rating: 20
[21]; 125 g ai/ha
  Wheat plant response rating: 0
[21]; 500 g ai/ha
  Wheat plant response rating: 0
[22]; [23]
  Corn plant response rating (0 to 100 scale): 0
[22]; [24]
  Plant response rating, Corn: 40
[22]; 125 g ai/ha
  Corn plant response rating: 20
[22]; 500 g ai/ha
  Corn plant response rating: 20
